# Experiments:
# keratin 10 = test: Recovery of keratin 10 marker gene expression in fine dust-treated keratinocytes (quantitative real-time PCR); format: cell-based; conditions: Human neonatal epidermal keratinocytes; 100 ppm fine dust 24 hours, then 50 ppm araloside for 5 days; FIG. 1; compared to fine dust only and untreated group
# Description: (§1) Human neonatal epidermal keratinocytes (HEK; Lonza, NHEK-Neo-Neonatal Normal. Human Epidermal Keratinocytes, Pooled) were dispensed in medium (KBM-gold, Lonza) in a 6-well plate at a density of 1×10^5 cells per well and cultured at 37° C. for 24 hours. 100 ppm of fine dust was treated in the well and subjected to stimulation for 24 hours, which was then treated with medium (KBM-gold, Lonza) containing 50 ppm each of […] and araloside X and incubated at 37° C. for 5 days. Then, RNA was extracted from the HEK cells incubated for 5 days using an RNeasy mini kit (Qiagen), and then a cDNA was synthesized through an RT-PCR process using a Superscript III kit (Invitrogen). To confirm the expression level of keratin 1 and keratin 10 genes, a probe (TaqMan™ fluorogenic probe, Hs00196158_m1, Hs00166289_m1) was used to conduct the quantitative real-time PCR process and observe the expression behavior of keratin 1 and keratin. 10. The control group used an untreated group not treated with fine dust and also not treated with araloside V, araloside VII and araloside X; and fine dust-treated group treated with fine dust but not, treated with araloside V, araloside VII and araloside X.
# keratin 1 = test: Recovery of keratin 1 marker gene expression in fine dust-treated keratinocytes (quantitative real-time PCR); format: cell-based; conditions: Human neonatal epidermal keratinocytes; 100 ppm fine dust 24 hours, then 50 ppm araloside for 5 days; FIG. 1; compared to fine dust only and untreated group
# Description: as §1
# MMP-1 = MMP-1 inhibitory effect in fine dust- and UVB-treated Hs68 fibroblasts (MMP-1 assay kit); format: cell-based, Human; conditions: 100 ppm fine dust 24 hours, UVB 30 mJ/M^2, then 50 ppm araloside for 48 hours, FIG. 2, compared to fine dust only and untreated group
# Description: Human neonatal fibroblast HS68 was purchased from Cascade Biologics (Invitrogen, USA) and used. Hs68 was cultured using DMEM medium supplemented with 10% FBS (fetal bovine serum), 50 U/ml of penacillin and 50 μg/ml of streptomycin. Cells were cultured under the conditions of 37° C., 5% CO2. The Hs68 was added to a 12-well plate at a concentration of 7.5×10^4 cells/well and cultured overnight. On the next day, the medium was replaced with FBS-free medium having a fine dust concentration of 100 ppm and cultured for 24 hours. After irradiating with UVB 30 mJ/M^2, the araloside V, araloside VII, and araloside X were treated at a concentration of 50 ppm for 48 hours, respectively. After culture, the medium was collected and the production amount of MMP-1 was measured using an MMP-1 assay kit (GE healthcare). The control group used an untreated group not treated with fine dust and also not treated with araloside V, araloside VII and araloside X; and a fine dust-treated group treated with fine dust but not treated with araloside V, araloside VII and araloside X.
# [1] = system: Reactive Oxygen Species (ROS); test: Inhibitory effect on reactive oxygen species (ROS) production in fine dust-stimulated keratinocytes (DCF-DA fluorescence); format: cell-based; conditions: human keratinocytes; sample 50 ppm for 2 hours, then treated with 100 ppm of fine dust; vehicle control = 100, fine dust only = 384
# Description: 5×10^4 Keratinocytes isolated from human epidermal tissue were added to each well of a 24-well plate and allowed to adhere for 24 hours. Then, […] and araloside X were treated at 50 ppm, respectively. At this time, for comparison, a control group (untreated group) was not treated with araloside V, araloside VII and araloside X, and a positive control group was treated with a known antioxidant ascorbic acid. After 2 hours, the culture solution was removed, and then 100 μl of phosphate buffered saline (PBS) containing 100 ppm of fine dust was added to each well. Then, the amount of active oxygen species increased by fine dust stimulation was quantified. The amount of ROS was quantified with reference to Tan's method of measuring the fluorescence of DCF-DA (dichlorofluorescin diacetate) oxidized by ROS (Tan et al., 1998, J. Cell Biol. Vol. 141, pp 1423-1432).
# IL1B = IL1B protein production in fine dust-stimulated human fibroblasts (ELISA); format: cell-based; conditions: 100 ppm fine dust 24 hours, then sample 50 ppm for 48 hours, culture solution ELISA, fine dust only = 311
# Description: (§2) Human fibroblasts (PromoCell, Germany) were inoculated in a 6-well plate at a concentration of 1×10^5 cells, and cultured in an incubator (37° C., 5% CO2) for 24 hours. 100 ppm of fine dust was treated in the well and subjected to stimulation for 24 hours, which was then treated with medium containing 50 ppm each of araloside V, araloside VII and araloside X and allowed to react for 48 hours. After completion of the reaction, the culture solution was collected and subjected to ELISA analysis. At this time, α-bisabolol, a substance frequently used as an anti-inflammatory and irritation-mitigating agent, was used as a control group. Measurement of the production amount of IL8 and IL1B proteins was carried out using a ThermoFisher's kit, and experiments were conducted according to the method described in the company's manual.
# IL8 = IL8 protein production in fine dust-stimulated human fibroblasts (ELISA); format: cell-based; conditions: 100 ppm fine dust 24 hours, then sample 50 ppm for 48 hours, culture solution ELISA, fine dust only = 246
# Description: as §2
compound,measurement,setting,value
CC1(C)CC[C@]2(C(=O)O[C@@H]3O[C@H](CO)[C@@H](O)[C@H](O)[C@H]3O)CC[C@]3(C)C(=CC[C@@H]4[C@@]5(C)CC[C@H](O[C@H]6O[C@H](CO)[C@@H](O)[C@@H](O[C@@H]7O[C@H](CO)[C@@H](O)[C@H](O)[C@H]7O)[C@H]6O[C@@H]6O[C@H](CO)[C@@H](O)[C@H](O)[C@H]6O)C(C)(C)[C@@H]5CC[C@]43C)[C@@H]2C1 [araloside V],expression of keratin 10 gene,keratin 10,a level equal to or higher than that in the untreated group
same,expression of keratin 1 gene,keratin 1,a level equal to or higher than that in the untreated group
same,MMP-1 activity (production amount of MMP-1),MMP-1,to about the level of MMP-1 activity in the untreated (control) group
same,"amount of ROS, ratio to control group treated with only vehicle (=100)",[1],110
same,IL1B (production amount of protein),IL1B,243 pg/mL
same,IL8 (production amount of protein),IL8,189 pg/mL
α-bisabolol [reference compound],IL1B (production amount of protein),IL1B,214 pg/mL
same,IL8 (production amount of protein),IL8,180 pg/mL
CC1(C)CC[C@]2(C(=O)O[C@@H]3O[C@H](CO)[C@@H](O)[C@H](O)[C@H]3O)CC[C@]3(C)C(=CC[C@@H]4[C@@]5(C)CC[C@H](O[C@@H]6O[C@H](CO)[C@@H](O)[C@H](O[C@@H]7O[C@H](CO)[C@@H](O)[C@H](O[C@@H]8O[C@H](CO)[C@@H](O)[C@H](O)[C@H]8O)[C@H]7O)[C@H]6O[C@@H]6O[C@H](CO)[C@@H](O)[C@H](O)[C@H]6O)C(C)(C)[C@@H]5CC[C@]43C)[C@@H]2C1 [araloside X],expression of keratin 10 gene,keratin 10,a level equal to or higher than that in the untreated group
same,expression of keratin 1 gene,keratin 1,a level equal to or higher than that in the untreated group
same,MMP-1 activity (production amount of MMP-1),MMP-1,to about the level of MMP-1 activity in the untreated (control) group
same,"amount of ROS, ratio to control group treated with only vehicle (=100)",[1],102
same,IL1B (production amount of protein),IL1B,252 pg/mL
same,IL8 (production amount of protein),IL8,187 pg/mL
CC1(C)CC[C@]2(C(=O)O[C@@H]3O[C@H](CO)[C@@H](O)[C@H](O)[C@H]3O)CC[C@]3(C)C(=CC[C@@H]4[C@@]5(C)CC[C@H](O[C@@H]6O[C@H](CO)[C@@H](O)[C@H](O[C@@H]7O[C@H](CO)[C@@H](O)[C@H](O)[C@H]7O)[C@H]6O[C@@H]6O[C@H](CO)[C@@H](O)[C@H](O)[C@H]6O)[C@@](C)(CO)[C@@H]5CC[C@]43C)[C@@H]2C1 [araloside VII],expression of keratin 10 gene,keratin 10,a level equal to or higher than that in the untreated group
same,expression of keratin 1 gene,keratin 1,a level equal to or higher than that in the untreated group
same,MMP-1 activity (production amount of MMP-1),MMP-1,to about the level of MMP-1 activity in the untreated (control) group
same,"amount of ROS, ratio to control group treated with only vehicle (=100)",[1],105
same,IL1B (production amount of protein),IL1B,256 pg/mL
same,IL8 (production amount of protein),IL8,184 pg/mL
"O=C1O[C@H]([C@@H](O)CO)C(O)=C1O [ascorbic acid, reference compound]","amount of ROS, ratio to control group treated with only vehicle (=100)",[1],200

# From patent US11052098B2, “Composition containing araloside for external application to skin” (Amorepacific Corporation, priority 2015, dated 2021)
